According to ChEMBL document CHEMBL4610025, “Discovery of a follistatin-derived myostatin inhibitory peptide” (Bioorg Med Chem Lett, 2020):
Calls of active or inactive are those of the source. No cut-off for these calls is given here. Non-standard residues stand in square brackets, D forms with d. Residues, ends and D or L forms follow the SMILES beside them. Chg = N[C@H](C(=O)O)C1CCCCC1

Columns and labels:
[1] = molecular target: T1, Growth/differentiation factor 8 (Homo sapiens, UniProt O14793); assay: (§1) Inhibition of myostatin (unknown origin) expressed in HEK293 cells incubated for 4 hrs by dual luciferase reporter gene assay; type: cell-based
T1 sequence (O14793 whole entry): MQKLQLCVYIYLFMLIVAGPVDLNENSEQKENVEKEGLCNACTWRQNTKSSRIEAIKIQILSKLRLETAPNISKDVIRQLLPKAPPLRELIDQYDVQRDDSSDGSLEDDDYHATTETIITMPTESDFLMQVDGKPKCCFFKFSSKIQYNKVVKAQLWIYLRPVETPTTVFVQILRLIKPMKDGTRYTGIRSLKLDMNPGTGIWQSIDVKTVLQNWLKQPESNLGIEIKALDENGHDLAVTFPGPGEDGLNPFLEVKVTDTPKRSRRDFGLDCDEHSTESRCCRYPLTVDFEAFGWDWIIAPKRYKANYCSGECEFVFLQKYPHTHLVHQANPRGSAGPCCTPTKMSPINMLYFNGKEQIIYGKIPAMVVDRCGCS

[2] = molecular target: Growth/differentiation factor 8 (Homo sapiens) (UniProt O14793); assay: Inhibition of myostatin (unknown origin) expressed in HEK293 cells at 10 uM incubated for 4 hrs by dual luciferase reporter gene assay; type: cell-based
HEK293 = assay: Inhibition of activin A (unknown origin) expressed in HEK293 cells at 0.3 to 10 uM incubated for 4 hrs by dual luciferase reporter gene assay; type: cell-based; conditions: Homo sapiens
[3] = molecular target: Transforming growth factor beta-1 proprotein (Homo sapiens) (UniProt P01137); assay: Inhibition of TGFbeta1 (unknown origin) expressed in HEK293 cells at 0.3 to 10 uM incubated for 4 hrs by dual luciferase reporter gene assay; type: cell-based
Chain of Transforming growth factor beta-1 proprotein (Homo sapiens) (P01137 279-390 limits assumed): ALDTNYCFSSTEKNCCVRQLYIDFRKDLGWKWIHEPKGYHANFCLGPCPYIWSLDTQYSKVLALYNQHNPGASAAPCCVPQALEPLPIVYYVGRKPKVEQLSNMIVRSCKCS

[4] = molecular target: Growth/differentiation factor 8 (Homo sapiens) (UniProt O14793); assay: as §1; type: cell-based
Mus musculus = assay: Effect on muscle growth in C57BL/6J mouse assessed as increase in tibialis anterior muscle weight at 20 nmol administered intramuscularly measured at day 28 relative to control; type: functional

SMILES | inhibition [2] | other results
CC[C@H](C)[C@H](NC(=O)[C@H](CCC(N)=O)NC(=O)[C@@H](NC(=O)[C@H](CCCCN)NC(=O)[C@@H](NC(=O)[C@@H](Cc1c[nH]c2ccccc12)NC(=O)[C@H](CCCNC(=N)N)NC(=O)[C@@H](NC(=O)[C@H](Cc1ccc(O)cc1)NC(=O)[C@@H](N)Cc1c[nH]c2ccccc12)[C@@H](C)CC)[C@@H](C)CC)C1CCCCC1)C(=O)N[C@@H](Cc1c[nH]c2ccccc12)C(=O)N[C@@H](CO)C(=O)N[C@@H](CCCCN)C(=O)N[C@H](C(=O)N[C@@H](CCCNC(=N)N)C(=O)N[C@@H](CC(C)C)C(N)=O)C1CCCCC1 (H-WYIR[dW]IK[Chg]QIWSK[Chg]RL-NH2) |  | IC50 [1]: 3.56 µM
CC[C@H](C)[C@H](NC(=O)[C@H](CCSC)NC(=O)[C@H](Cc1c[nH]c2ccccc12)NC(=O)[C@H](CCCCN)NC(=O)[C@H](Cc1ccccc1)NC(=O)[C@H](CC(C)C)NC(=O)[C@@H](NC(=O)[C@H](CC(N)=O)NC(=O)[C@H](CC(=O)O)NC(=O)[C@H](CC(N)=O)NC(=O)[C@@H](N)C(C)C)[C@@H](C)O)C(=O)N[C@@H](Cc1ccccc1)C(=O)N[C@@H](CC(N)=O)C(=O)NCC(N)=O (H-VNDNTLFKWMIFNG-NH2) | Active | inhibition (HEK293): inactive; inhibition [3]: inactive; inhibition [4]: Dose-dependent effect; IC50 [1]: 6.2 µM; Activity (Mus musculus): 112%
CC[C@H](C)[C@H](NC(=O)[C@H](CCSC)NC(=O)[C@H](Cc1c[nH]c2ccccc12)NC(=O)[C@H](CCCCN)NC(=O)[C@H](Cc1ccccc1)NC(=O)[C@H](CC(C)C)NC(=O)[C@@H](NC(=O)[C@H](CC(N)=O)NC(=O)[C@H](C)NC(=O)[C@H](CC(N)=O)NC(=O)[C@@H](N)C(C)C)[C@@H](C)O)C(=O)N[C@@H](Cc1ccccc1)C(=O)N[C@@H](CC(N)=O)C(=O)NCC(N)=O (H-VNANTLFKWMIFNG-NH2) | Active | 
CC[C@H](C)[C@H](NC(=O)[C@H](CCSC)NC(=O)[C@H](Cc1c[nH]c2ccccc12)NC(=O)[C@H](CCCCN)NC(=O)[C@H](Cc1ccccc1)NC(=O)[C@H](CC(C)C)NC(=O)[C@@H](NC(=O)[C@H](CC(N)=O)NC(=O)[C@H](CC(=O)O)NC(=O)[C@H](CC(N)=O)NC(=O)[C@@H](N)C(C)C)[C@@H](C)O)C(=O)N[C@@H](C)C(=O)N[C@@H](CC(N)=O)C(=O)NCC(N)=O (H-VNDNTLFKWMIANG-NH2) | inactive | 
CC[C@H](C)[C@H](NC(=O)[C@H](CCSC)NC(=O)[C@H](C)NC(=O)[C@H](CCCCN)NC(=O)[C@H](Cc1ccccc1)NC(=O)[C@H](CC(C)C)NC(=O)[C@@H](NC(=O)[C@H](CC(N)=O)NC(=O)[C@H](CC(=O)O)NC(=O)[C@H](CC(N)=O)NC(=O)[C@@H](N)C(C)C)[C@@H](C)O)C(=O)N[C@@H](Cc1ccccc1)C(=O)N[C@@H](CC(N)=O)C(=O)NCC(N)=O (H-VNDNTLFKAMIFNG-NH2) | inactive | 
CC[C@H](C)[C@H](NC(=O)[C@H](CCSC)NC(=O)[C@H](Cc1c[nH]c2ccccc12)NC(=O)[C@H](CCCCN)NC(=O)[C@H](Cc1ccccc1)NC(=O)[C@H](CC(C)C)NC(=O)[C@@H](NC(=O)[C@H](CC(N)=O)NC(=O)[C@H](CC(=O)O)NC(=O)[C@H](C)NC(=O)[C@@H](N)C(C)C)[C@@H](C)O)C(=O)N[C@@H](Cc1ccccc1)C(=O)N[C@@H](CC(N)=O)C(=O)NCC(N)=O (H-VADNTLFKWMIFNG-NH2) | inactive | 
CSCC[C@H](NC(=O)[C@H](Cc1c[nH]c2ccccc12)NC(=O)[C@H](CCCCN)NC(=O)[C@H](Cc1ccccc1)NC(=O)[C@H](CC(C)C)NC(=O)[C@@H](NC(=O)[C@H](CC(N)=O)NC(=O)[C@H](CC(=O)O)NC(=O)[C@H](CC(N)=O)NC(=O)[C@@H](N)C(C)C)[C@@H](C)O)C(=O)N[C@@H](C)C(=O)N[C@@H](Cc1ccccc1)C(=O)N[C@@H](CC(N)=O)C(=O)NCC(N)=O (H-VNDNTLFKWMAFNG-NH2) | inactive | 
